Measurements reported in patent US20250163104A1, “MACROCYCLIC IMMUNOMODULATORS” (priority 2021, published 2025).
Where a SMILES comes first, the peptide text is derived from it. Bridges are numbered along the chain shown (N, C = ends). [ ]: non-standard residue; d: D form. The star is where a group is joined. ξ: configuration not given here. Phe(4-COOH) = N[C@@H](Cc1ccc(C(=O)O)cc1)C(=O)O; Bip = N[C@@H](Cc1ccc(-c2ccccc2)cc1)C(=O)O; Phe(2-CN) = N#Cc1ccccc1C[C@H](N)C(=O)O; Phe(3-Me) = Cc1cccc(C[C@H](N)C(=O)O)c1; Phe(4-F) = N[C@@H](Cc1ccc(F)cc1)C(=O)O; Val(3-OH) = CC(C)(O)[C@H](N)C(=O)O; h4Pal = N[C@@H](CCc1ccncc1)C(=O)O; 4Pal = N[C@@H](Cc1ccncc1)C(=O)O; Cha = N[C@@H](CC1CCCCC1)C(=O)O; Cit = NC(=O)NCCC[C@H](N)C(=O)O; Ile(3ξ) = CCC(C)[C@H](N)C(=O)O; NMeDab = CN[C@@H](CCN)C(=O)O; Carboxymethyl = O=C(O)C*; Orn = NCCC[C@H](N)C(=O)O; Pra = C#CC[C@H](N)C(=O)O; Dab = NCC[C@H](N)C(=O)O; Nva = CCC[C@H](N)C(=O)O; Dap = NC[C@H](N)C(=O)O; Aib = CC(C)(N)C(=O)O; Piv = CC(C)(C)C(=O)*; Propargyl = C#CC*

Molecular target: T1, human PD-1 / PD-L1-Ig binding on Jurkat cell line over-expressing human PD-1 (Jurkat-PD-1) (Homo sapiens, UniProt Q15116)
T1 construct: expressed in transfected cells; host or cells: Jurkat
Experiment: Jurkat-PD-1 Cell Binding High-Content Screening Assay (CBA)
Format: cell-based
Conditions: Jurkat-PD-1 cells, PE-labeled PD-L1-Ig 20 nM final; read-out: Jurkat HPD1_PDL1 IC50
Procedure, shortened: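 Jurkat cells over-expressing human PD-1, in DMEM/10% FCS, pre-incubated with compound 2 h at 37° C. PE-labeled human PD-L1-Ig (20 nM final) added for 1 h; cells fixed in paraformaldehyde with Hoechst 33342 nuclear stain, washed, and bound fluorescence quantified by high-content imaging.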

T1 sequence (Q15116 25-288): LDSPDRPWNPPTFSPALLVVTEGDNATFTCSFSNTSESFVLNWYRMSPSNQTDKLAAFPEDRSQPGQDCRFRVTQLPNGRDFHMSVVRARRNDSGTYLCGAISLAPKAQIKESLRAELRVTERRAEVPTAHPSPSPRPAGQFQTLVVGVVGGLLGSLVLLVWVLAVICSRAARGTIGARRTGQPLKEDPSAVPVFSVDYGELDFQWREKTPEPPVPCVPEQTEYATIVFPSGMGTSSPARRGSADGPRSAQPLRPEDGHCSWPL

| SMILES | IC50 |
| --- | --- |
| CC(C)C[C@H]1NC(=O)[C@H](CCCN)NC(=O)[C@H](CCC(=O)O)NC(=O)[C@H](Cc2ccc(-c3ccccc3)cc2)NC(=O)[C@H](C(C)C)NC(=O)[C@H](Cc2c[nH]c3ccccc23)NC(=O)[C@H](CC(=O)O)NC(=O)[C@H](Cc2ccc(OCC(=O)O)cc2)NC(=O)[C@H](CN)NC(=O)CSC[C@@H](C(=O)N[C@@H](C)C(N)=O)NC(=O)[C@H]([C@@H](C)O)NC(=O)[C@H](C(C)C)NC(=O)[C@H](Cc2ccccc2C#N)NC(=O)[C@H](CCN)NC1=O [Compound 1487] ({CH2CO}-[Dap]Y(Carboxymethyl)DWV[Bip]E[Orn][dL][Dab][Phe(2-CN)]VTCA-NH2; thioether N-14) | 268 nM |
| C#CC[C@H](NC(=O)[C@H](CCN)NC(=O)[C@@H]1CSCC(=O)N[C@@H](CCCN)C(=O)N[C@@H](Cc2ccc(C(=O)O)cc2)C(=O)N[C@@H](CC(=O)O)C(=O)N[C@@H](Cc2cccc(C)c2)C(=O)N[C@@H](Cc2ccc(C(=O)O)cc2)C(=O)N[C@@H](Cc2ccc(-c3ccccc3)cc2)C(=O)N[C@@H](Cc2ccc(C(=O)O)cc2)C(=O)N[C@@H](CCCN)C(=O)N[C@H](CC(C)C)C(=O)N[C@@H](CCN)C(=O)N[C@@H](CC2CCCCC2)C(=O)N[C@@H](C(C)(C)O)C(=O)N[C@@H](Cc2cnc[nH]2)C(=O)N1)C(N)=O [Compound 1857] ({CH2CO}-[Orn][Phe(4-COOH)]D[Phe(3-Me)][Phe(4-COOH)][Bip][Phe(4-COOH)][Orn][dL][Dab][Cha][Val(3-OH)]HC[Dab][Pra]-NH2; thioether N-14) | 7.4 nM |
| Cc1cccc(C[C@@H]2NC(=O)[C@H](CC(=O)O)NC(=O)[C@H](CCc3ccncc3)NC(=O)[C@H](CN)NC(=O)CSC[C@@H](C(=O)N[C@@H](C)C(N)=O)NC(=O)[C@H]([C@@H](C)O)NC(=O)[C@H](C(C)C)NC(=O)[C@H](CC(C)C)NC(=O)[C@H](CCN)NC(=O)[C@@H](CC(C)C)NC(=O)[C@H](CCCN)NC(=O)[C@H](C(C)C)NC(=O)[C@H](Cc3ccc(-c4ccccc4)cc3)NC(=O)[C@H](C(C)C)NC2=O)c1 [Compound 1253] ({CH2CO}-[Dap][h4Pal]D[Phe(3-Me)]V[Bip]V[Orn][dL][Dab]LVTCA-NH2; thioether N-14) | 6.8 nM |
| Cc1cccc(C[C@@H]2NC(=O)[C@H](CC(=O)O)NC(=O)[C@H](Cc3ccc(C(=O)O)cc3)NC(=O)[C@H](Cc3ccc(OCC(=O)O)cc3)NC(=O)CSC[C@@H](C(=O)N[C@@H](C)C(N)=O)NC(=O)[C@H]([C@@H](C)O)NC(=O)[C@H](C(C)C)NC(=O)[C@H](CC3CCCCC3)NC(=O)[C@H](CCN)NC(=O)[C@@H](CC(C)C)NC(=O)[C@H](CCCN)NC(=O)[C@H](CCN)NC(=O)[C@H](Cc3ccc(-c4ccccc4)cc3)NC(=O)[C@H](C(C)C)NC2=O)c1 [Compound 1415] | 13.8 nM |
| CC[C@H](C)[C@@H]1NC(=O)[C@H](Cc2ccc(-c3ccccc3)cc2)NC(=O)[C@H](C(C)C)NC(=O)[C@H](Cc2cccc(OC)c2)NC(=O)[C@H](CC(=O)O)NC(=O)[C@H](Cc2ccncc2)NC(=O)[C@H](CN)NC(=O)CSC[C@@H](C(=O)N[C@@H](C)C(N)=O)NC(=O)[C@H]([C@@H](C)O)NC(=O)[C@H](C(C)C)NC(=O)[C@H](CC2CCCCC2)NC(=O)[C@H](CCN)NC(=O)[C@@H](CC(C)C)NC(=O)[C@H](CCCN)NC1=O [Compound 1563] | 10.7 nM |
| CCC(C)[C@@H]1NC(=O)[C@H](Cc2ccc(-c3ccccc3)cc2)NC(=O)[C@H](C(C)C)NC(=O)[C@H](Cc2c[nH]c3ccccc23)NC(=O)[C@H](CC(=O)O)NC(=O)[C@H](Cc2ccc(OCC(=O)O)cc2)NC(=O)[C@H](CCN)N(C)C(=O)CSC[C@@H](C(=O)N[C@@H](C)C(N)=O)NC(=O)[C@H](CO)NC(=O)[C@H](C(C)C)NC(=O)[C@H](CC2CCCCC2)NC(=O)[C@H](CCN)NC(=O)[C@@H](CC(C)C)NC(=O)[C@H](CCCN)NC1=O (stereo partly drawn) [Compound 2517] ({CH2CO}-[NMeDab]Y(Carboxymethyl)DWV[Bip][Ile(3ξ)][Orn][dL][Dab][Cha]VSCA-NH2; thioether N-14) | 3.4 nM |
| Cc1cccc(C[C@@H]2NC(=O)[C@H](CC(=O)O)NC(=O)[C@H](Cc3ccncc3)NC(=O)[C@H](CN)NC(=O)CSC[C@@H](C(=O)N[C@@H](C)C(N)=O)NC(=O)[C@H]([C@@H](C)O)NC(=O)[C@H](C(C)C)NC(=O)[C@H](CC(C)C)NC(=O)[C@H](CCN)NC(=O)[C@@H](CC(C)C)NC(=O)[C@H](CCCN)NC(=O)[C@H](CCCNC(N)=O)NC(=O)[C@H](Cc3ccc(-c4ccccc4)cc3)NC(=O)[C@H](C(C)C)NC2=O)c1 [Compound 1239] ({CH2CO}-[Dap][4Pal]D[Phe(3-Me)]V[Bip][Cit][Orn][dL][Dab]LVTCA-NH2; thioether N-14) | 14.3 nM |
| C#CCOc1ccc(C[C@@H]2NC(=O)[C@H](Cc3ccc(-c4ccccc4)cc3)NC(=O)[C@H](Cc3ccc(OCC(=O)O)cc3)NC(=O)[C@H](Cc3cccc(C)c3)NC(=O)[C@H](CC(=O)O)NC(=O)[C@H](Cc3ccc(OCC(=O)O)cc3)NC(=O)[C@H](CCC)NC(=O)CSC[C@@H](C(=O)N[C@@H](CCN)C(N)=O)NC(=O)[C@H](CCC(=O)O)NC(=O)[C@H](C(C)C)NC(=O)[C@H](CC3CCCCC3)NC(=O)[C@H](CCN)NC(=O)[C@@H](CC(C)C)NC(=O)[C@H](CCCN)NC2=O)cc1 [Compound 1837] ({CH2CO}-[Nva]Y(Carboxymethyl)D[Phe(3-Me)]Y(Carboxymethyl)[Bip]Y(Propargyl)[Orn][dL][Dab][Cha]VEC[Dab]-NH2; thioether N-14) | 8.3 nM |
| CC[C@H](C)[C@@H]1NC(=O)[C@H](Cc2ccc(-c3ccccc3)cc2)NC(=O)[C@H](C(C)C)NC(=O)[C@H](Cc2c[nH]c3ccccc23)NC(=O)[C@H](CC(=O)O)NC(=O)[C@H](Cc2ccc(O)cc2)NC(=O)[C@H](CC(N)=O)NC(=O)CSC[C@@H](C(=O)N[C@@H](C)C(N)=O)NC(=O)[C@H]([C@@H](C)O)NC(=O)[C@H](C(C)C)NC(=O)[C@H](CC(C)C)NC(=O)[C@H](CCCNC(=N)N)NC(=O)[C@@H](CC(C)C)NC(=O)[C@H](CCCN)NC1=O [Compound 1143] ({CH2CO}-NYDWV[Bip]I[Orn][dL]RLVTCA-NH2; thioether N-14) | 15.8 nM |
| CC[C@H](C)[C@@H]1NC(=O)[C@H](Cc2ccc(-c3ccccc3)cc2)NC(=O)[C@H](C(C)C)NC(=O)[C@H](Cc2c[nH]c3ccccc23)NC(=O)[C@H](CC(=O)O)NC(=O)[C@H](Cc2ccc(O)cc2)NC(=O)[C@H](CC(N)=O)NC(=O)CSC[C@@H](C(=O)NCC(N)=O)NC(=O)[C@H]([C@@H](C)O)NC(=O)[C@H](C(C)C)NC(=O)[C@H](CC(C)C)NC(=O)[C@H](CCN)NC(=O)[C@@H](CC(C)C)NC(=O)[C@H](CCCN)NC1=O [Compound 1124] ({CH2CO}-NYDWV[Bip]I[Orn][dL][Dab]LVTCG-NH2; thioether N-14) | 24.3 nM |

Continued, values first:

| IC50 | SMILES |
| --- | --- |
| 19.3 nM | Cc1cccc(C[C@@H]2NC(=O)[C@H](CC(=O)O)NC(=O)[C@H](Cc3ccc(OCC(=O)O)cc3)NC(=O)[C@H](Cc3ccncc3)NC(=O)CSC[C@@H](C(=O)N[C@@H](CCNC(=O)C(C)(C)C)C(N)=O)NC(=O)[C@H]([C@@H](C)O)NC(=O)[C@H](C(C)C)NC(=O)[C@H](CC3CCCCC3)NC(=O)[C@H](CCN)NC(=O)[C@@H](CC(C)C)NC(=O)[C@H](CCN)NC(=O)[C@H](Cc3ccc(OCC(=O)O)cc3)NC(=O)[C@H](Cc3ccc(-c4ccccc4)cc3)NC(=O)[C@H](Cc3ccc(OCC(=O)O)cc3)NC2=O)c1 [Compound 2060] ({CH2CO}-[4Pal]Y(Carboxymethyl)D[Phe(3-Me)]Y(Carboxymethyl)[Bip]Y(Carboxymethyl)[Dab][dL][Dab][Cha]VTC[Dab](Piv)-NH2; thioether N-14) |
| 1.9 nM | Cc1cccc(C[C@@H]2NC(=O)[C@H](CC(=O)O)NC(=O)[C@H](Cc3ccc(C(=O)O)cc3)NC(=O)[C@H](Cc3ccc(F)cc3)NC(=O)CSC[C@@H](C(=O)N[C@@H](CCN)C(N)=O)NC(=O)[C@H](Cc3cnc[nH]3)NC(=O)[C@H](C(C)(C)O)NC(=O)[C@H](CC3CCCCC3)NC(=O)[C@H](CCN)NC(=O)[C@@H](CC(C)C)NC(=O)[C@H](CCCN)NC(=O)[C@H](Cc3ccc(OCC(=O)O)cc3)NC(=O)[C@H](Cc3ccc(-c4ccccc4)cc3)NC(=O)[C@H](Cc3ccc(OCC(=O)O)cc3)NC2=O)c1 [Compound 2684] ({CH2CO}-[Phe(4-F)][Phe(4-COOH)]D[Phe(3-Me)]Y(Carboxymethyl)[Bip]Y(Carboxymethyl)[Orn][dL][Dab][Cha][Val(3-OH)]HC[Dab]-NH2; thioether N-14) |
| 8.8 nM | Cc1cccc(C[C@@H]2NC(=O)[C@H](CC(=O)O)NC(=O)[C@H](Cc3ccc(C(=O)O)cc3)NC(=O)[C@H](Cc3ccncc3)NC(=O)CSC[C@@H](C(=O)NC(C)(C)C(N)=O)NC(=O)[C@H](CO)NC(=O)[C@H](C(C)C)NC(=O)[C@H](CC3CCCCC3)NC(=O)[C@H](CCN)NC(=O)[C@@H](CC(C)C)NC(=O)[C@H](CCCN)NC(=O)[C@H](Cc3ccc(OCC(=O)O)cc3)NC(=O)[C@H](Cc3ccc(-c4ccccc4)cc3)NC(=O)[C@H](Cc3ccc(OCC(=O)O)cc3)NC2=O)c1 [Compound 2296] ({CH2CO}-[4Pal][Phe(4-COOH)]D[Phe(3-Me)]Y(Carboxymethyl)[Bip]Y(Carboxymethyl)[Orn][dL][Dab][Cha]VSC[Aib]-NH2; thioether N-14) |
| 4.1 nM | Cc1cccc(C[C@@H]2NC(=O)[C@H](CC(=O)O)NC(=O)[C@H](Cc3ccc(C(=O)O)cc3)NC(=O)[C@H](Cc3ccncc3)NC(=O)CSC[C@@H](C(=O)N[C@@H](CC(N)=O)C(N)=O)NC(=O)[C@H](CO)NC(=O)[C@H](C(C)C)NC(=O)[C@H](CC3CCCCC3)NC(=O)[C@H](CCN)NC(=O)[C@@H](CC(C)C)NC(=O)[C@H](CCCN)NC(=O)[C@H](Cc3ccc(O)cc3)NC(=O)[C@H](Cc3ccc(-c4ccccc4)cc3)NC(=O)[C@H](Cc3ccc(O)cc3)NC2=O)c1 [Compound 2284] ({CH2CO}-[4Pal][Phe(4-COOH)]D[Phe(3-Me)]Y[Bip]Y[Orn][dL][Dab][Cha]VSCN-NH2; thioether N-14) |
